What was measured:
Ctenocephalides felis [1] = experiment: In vitro contact test with fleas; conditions: read-out: insecticidal activity; for pest or weed control at 0.2 µg/cm2, 0.2 µg/cm2: dose 0.2 μg/cm^2, dead or moribund fleas after 48 h; for pest or weed control at 1 µg/cm2, 1 µg/cm2: dose 1 μg/cm^2, dead or moribund fleas after 48 h; for pest or weed control at 0.04 µg/cm2, 0.04 µg/cm2: dose 0.04 μg/cm^2, dead or moribund fleas after 48 h
Description: In Vitro Contact Tests with Fleas
In vitro contact tests with fleas were conducted with adult male and female cat fleas (Ctenocephalides felis).
To coat the test tubes, the test substance was dissolved and diluted in acetone p.a. to the desired concentration. The solution was then homogeneously applied to the inner wall and base of a glass tube by turning and rocking on an orbital shaker until complete evaporation of the solvent. For example, with a 900 ppm solution of test substance, an area-based dose of 5 μg/cm^2 was achieved.
Upon complete evaporation of the solvent, 5-10 adult cat fleas (Ctenocephalides felis) were added to each coated tube, which was then sealed with a perforated plastic lid and incubated in a horizontal position at room temperature and ambient humidity. After 48 h, insecticidal activity against fleas was determined. For this, fleas were collected to the base of the tube by knocking the tube, and the tube was allowed to stand upright. Fleas which remained motionless at the base or moved in an uncoordinated manner were considered dead or moribund, respectively.
A substance was judged to have good insecticidal activity against Ctenocephalides felis when at least 80% of the fleas were found dead or moribund at a dose of the substance of μg/cm^2. 100% insecticidal activity means that all the fleas were found dead or moribund. 0% insecticidal activity means that no fleas were found dead or moribund.

Amblyomma americanum = experiment: In vitro contact test with hard ticks (Amblyomma americanum nymphs); conditions: read-out: acaricidal activity; for pest or weed control at 1 µg/cm2, 1 µg/cm2: dose 1 μg/cm^2, 48 h; for pest or weed control at 0.2 µg/cm2, 0.2 µg/cm2: dose 0.2 μg/cm^2, 48 h
Description: (§1) In Vitro Contact Tests with Adult Hard Ticks
(§2) In vitro contact tests with ticks were conducted with adult males and females of Rhipicephalus sanguineus, Ixodes ricinus, or Dermacentor variabilis, or nymphs of Amblyomma americanum.
(§3) For the coating of the test vials, the test substance was dissolved and diluted in acetone p.a. to the desired concentration. The solution was then homogeneously applied to the inner wall and base of a glass vial by turning and rocking on an orbital shaker until complete evaporation of the solvent. For example, with a 900 ppm solution of test substance, an area-based dose of 5 μg/cm^2 was achieved.
(§4) After the solvent was completely evaporated, 5-10 adult ticks were put in each coated test vial, which was then sealed with a perforated plastic lid and incubated in a horizontal position in the dark at room temperature and ambient humidity (Rhipicephalus sanguineus) or in a climate-controlled cabinet (Ixodes ricinus, Dermacentor variabilis, Amblyomma americanum [21° C., 85% rel. hum.]). Acaricidal activity against the respective tick species was determined after 48 h. For this, ticks were collected to the base of the test vial by gentle knocking, and test vials were then incubated on a hotplate at 45-50° C. for no longer than 5 min. Ticks which remained motionless on the base of the test vial or moved uncoordinated without deliberately climbing up to avoid the heat were considered dead or moribund, respectively.
(§5) A substance was judged to have good acaricidal activity against the respective tick species when at least 80% of ticks were found dead or moribund at a dose of the substance of g/cm^2. An acaricidal activity of 100% means all ticks were dead or moribund. An acaricidal activity of 0% means none of the ticks was found dead or moribund.

Dermacentor variabilis = experiment: In vitro contact test with adult hard ticks (Dermacentor variabilis); conditions: read-out: acaricidal activity; for pest or weed control at 0.2 µg/cm2, 0.2 µg/cm2: dose 0.2 μg/cm^2, 48 h; for pest or weed control at 1 µg/cm2, 1 µg/cm2: dose 1 μg/cm^2, 48 h
Description: as §1, §2, §3, §4, §5

Ixodes ricinus = experiment: In vitro contact test with adult hard ticks (Ixodes ricinus); conditions: read-out: acaricidal activity; for pest or weed control at 0.2 µg/cm2, 0.2 µg/cm2: dose 0.2 μg/cm^2, 48 h; for pest or weed control at 1 µg/cm2, 1 µg/cm2: dose 1 μg/cm^2, 48 h; for pest or weed control at 5 µg/cm2, 5 µg/cm2: dose 5 μg/cm^2, 48 h
Description: as §1, §2, §3, §4, §5

Rhipicephalus sanguineus = experiment: In vitro contact test with adult hard ticks (Rhipicephalus sanguineus); conditions: read-out: acaricidal activity; for pest or weed control at 0.2 µg/cm2, 0.2 µg/cm2: dose 0.2 μg/cm^2, 48 h; for pest or weed control at 0.04 µg/cm2, 0.04 µg/cm2: dose 0.04 μg/cm^2, 48 h; for pest or weed control at 1 µg/cm2, 1 µg/cm2: dose 1 μg/cm^2, 48 h
Description: as §1, §2, §3, §4, §5

[2] = tested on: Rhipicephalus (Boophilus) microplus; experiment: In vitro injection test with Rhipicephalus (Boophilus) microplus (BOOPMI Inj); conditions: 168 h, laid fertile eggs after 7 days, read-out: acaricidal activity; for pest or weed control at 0.00016 mg: dose 0.16 μg/animal injected; for pest or weed control at 0.0008 mg: dose 0.8 μg/animal injected; for pest or weed control at 32 ng: dose 0.032 μg/animal injected
Description: In Vitro Injection Test with Rhipicephalus (Boophilus) Microplus (BOOPMI Inj)
To produce an appropriate mixture for injection, the test substance was dissolved and diluted in dimethyl sulphoxide to the desired concentration. 1 μl of the test mixture was injected into the abdomen of each of 5 engorged adult female cattle ticks (Rhipicephalus (Boophilus) microplus). The ticks were transferred into petri dishes and maintained in a climate-controlled room [28° C., 85% rel. hum.].
Acaricidal activity against cattle ticks was assessed after 7 days by assessment of laid fertile eggs. […] An acaricidal activity of 100% means that none of the ticks laid eggs or laid eggs were infertile; 0% means that the ticks laid eggs, and all the eggs were fertile.

Ctenocephalides felis [3] = experiment: Ctenocephalides felis in-vitro feeding test with fleas (CTECFE oral); conditions: 48 hours, read-out: insecticidal feeding activity; for pest or weed control at 0.8 ppm: dose 0.8 ppm in citrated cattle blood; for pest or weed control at 4 ppm: dose 4 ppm in citrated cattle blood; for pest or weed control at 0.032 ppm: dose 0.032 ppm in citrated cattle blood; for pest or weed control at 0.16 ppm: dose 0.16 ppm in citrated cattle blood
Description: Ctenocephalides felis In-Vitro Feeding Test with Fleas (CTECFE Oral)
To prepare a test blood mixture for feeding fleas, the test substance was dissolved in dimethyl sulphoxide and diluted with citrated cattle blood to the desired concentration.
To assemble the test set-up, about 20 unfed adult male and female cat fleas
(Ctenocephalides felis) were placed in a chamber which was closed at the top and bottom with gauze. A metal cylinder was sealed at one end with parafilm membrane, placed with the sealed base onto the chamber, and filled with the test blood mixture, which could be imbibed by the fleas through the parafilm membrane. The assembled test set-up was maintained at about 37° C. After 48 hours, the insecticidal feeding activity against fleas was determined. 100% means that all of the fleas were killed; 0% means that none of the fleas was killed.

| Structure (SMILES) | pest or weed control at 0.2 µg/cm2, 0.2 µg/cm2 (Ctenocephalides felis [1]) | pest or weed control at 1 µg/cm2, 1 µg/cm2 (Ctenocephalides felis [1]) | pest or weed control at 1 µg/cm2, 1 µg/cm2 (Amblyomma americanum) | pest or weed control at 0.2 µg/cm2, 0.2 µg/cm2 (Dermacentor variabilis) | pest or weed control at 1 µg/cm2, 1 µg/cm2 (Dermacentor variabilis) | pest or weed control at 0.2 µg/cm2, 0.2 µg/cm2 (Ixodes ricinus) | pest or weed control at 1 µg/cm2, 1 µg/cm2 (Ixodes ricinus) | pest or weed control at 5 µg/cm2, 5 µg/cm2 (Ixodes ricinus) | pest or weed control at 0.2 µg/cm2, 0.2 µg/cm2 (Rhipicephalus sanguineus) | pest or weed control at 0.00016 mg [2] | pest or weed control at 0.0008 mg [2] | pest or weed control at 0.8 ppm (Ctenocephalides felis [3]) | pest or weed control at 4 ppm (Ctenocephalides felis [3]) | pest or weed control at 0.2 µg/cm2, 0.2 µg/cm2 (Amblyomma americanum) | pest or weed control at 0.04 µg/cm2, 0.04 µg/cm2 (Rhipicephalus sanguineus) | pest or weed control at 1 µg/cm2, 1 µg/cm2 (Rhipicephalus sanguineus) | pest or weed control at 32 ng [2] | pest or weed control at 0.032 ppm (Ctenocephalides felis [3]) | pest or weed control at 0.16 ppm (Ctenocephalides felis [3]) | pest or weed control at 0.04 µg/cm2, 0.04 µg/cm2 (Ctenocephalides felis [1]) | other results |
| --- | --- | --- | --- | --- | --- | --- | --- | --- | --- | --- | --- | --- | --- | --- | --- | --- | --- | --- | --- | --- | --- |
| N#Cc1ccc(C(=O)Nc2cccc(C(=O)Nc3c(Br)cc(C(F)(C(F)(F)F)C(F)(F)F)cc3OC(F)(F)F)c2)cc1 [Compound 9] | 95% | 95% | 90% | 90% | 90% | 90% | 90% | 90% | 90% | 100% | 100% | 95% | 95% | – | – | – | – | – | – | – | – |
| O=C(Nc1cccc(C(=O)Nc2c(Br)cc(C(F)(C(F)(F)F)C(F)(F)F)cc2OC(F)(F)F)c1)c1ccc(F)cc1 [Compound 12] | 95% | 95% | 90% | – | – | 90% | 90% | 90% | 90% | 100% | 100% | 95% | 95% | 90% | 90% | 90% | – | – | – | – | pest or weed control at 0.04 µg/cm2, 0.04 µg/cm2 (Amblyomma americanum; dose 0.04 μg/cm^2, 48 h): 90% |
| N#Cc1ccc(C(=O)Nc2cccc(C(=O)Nc3c(Br)cc(C(F)(C(F)(F)F)C(F)(F)F)cc3OC(F)(F)F)c2F)cc1 [Compound 13] | 95% | 95% | 90% | 90% | 90% | 90% | 90% | 90% | 90% | 100% | 100% | 95% | 95% | 90% | 90% | 90% | 100% | 95% | 95% | – | – |
| N#Cc1ccc(C(=O)Nc2cccc(C(=O)Nc3c(Br)cc(C(F)(C(F)(F)F)C(F)(F)F)cc3C(F)(F)F)c2F)cc1 [Compound 16] | 95% | 95% | 90% | 90% | 90% | 90% | 90% | 90% | 90% | 100% | 100% | 95% | 95% | 90% | 90% | 90% | – | 95% | 95% | 95% | pest or weed control at 0.0064 ppm (Ctenocephalides felis [3]; dose 0.0064 ppm in citrated cattle blood): 95% |
| CN(C(=O)c1ccc(F)cc1)c1cccc(C(=O)Nc2c(Br)cc(C(F)(C(F)(F)F)C(F)(F)F)cc2C(F)(F)F)c1F [Compound 26] | 95% | 95% | 90% | 90% | 90% | – | 90% | 90% | – | 100% | 100% | 95% | 95% | 90% | – | 90% | 100% | – | – | 95% | – |
| O=C(Nc1cccc(C(=O)Nc2c(Br)cc(C(F)(C(F)(F)F)C(F)(F)F)cc2C(F)(F)F)c1F)c1ccc(F)cc1 [Compound 29] | 95% | 95% | 90% | 90% | 90% | – | – | 90% | 90% | – | – | 95% | 95% | 90% | 90% | 90% | – | – | – | – | – |

Reference: US11696913B2, “Prolonged ectoparasite-controlling agent for animal” (MITSUI CHEMICALS AGRO, INC., priority 2017, dated 2023)
